Laboratory results taken from patent publication US7265154B2, “Valproic acid and derivatives thereof as histone deacetylase inhibitors” (Georg-Speyter-Haus Chemotherapeutisches Forschungsinstitut, priority 2000, dated 2007).
“And” between values parts separate entries of the source, which are not always exact repeats. Equal entries are not always repeated. Square brackets hold non-standard residues; d marks the D form. Peptide text beside a SMILES is read from it. Aoe = N[C@@H](CCCCCC(=O)[C@@H]1CO1)C(=O)O

Columns and labels:
[1] = system: Gal4 fusion proteins of TR, PPARδ, RAR, N—CoR and AML/ETO in Hela cells; experiment: Gal4 fusion protein transcriptional repression assay, UAS TK luciferase reporter; type: cell-based; settings: 24 h, VPA 1 mM, Trapoxin 10 nM, TSA 100 nM
[2] = biological target: T1, PPARδ ligand binding domain (glucocorticoid receptor hybrid) (UniProt P04150+P35396); experiment: PPARδ-glucocorticoid receptor hybrid reporter gene assay (alkaline phosphatase) in CHO cells; type: cell-based; settings: 40 h, cPGI 5 μM with VPA 1 or 2 mM or TSA 300 nM
T1 construct: expressed in transfected cells; host or cells: CHO subclone with MMTV-LTR alkaline phosphatase reporter
T1 sequence (P04150+P35396 with tags, fused parts or gaps): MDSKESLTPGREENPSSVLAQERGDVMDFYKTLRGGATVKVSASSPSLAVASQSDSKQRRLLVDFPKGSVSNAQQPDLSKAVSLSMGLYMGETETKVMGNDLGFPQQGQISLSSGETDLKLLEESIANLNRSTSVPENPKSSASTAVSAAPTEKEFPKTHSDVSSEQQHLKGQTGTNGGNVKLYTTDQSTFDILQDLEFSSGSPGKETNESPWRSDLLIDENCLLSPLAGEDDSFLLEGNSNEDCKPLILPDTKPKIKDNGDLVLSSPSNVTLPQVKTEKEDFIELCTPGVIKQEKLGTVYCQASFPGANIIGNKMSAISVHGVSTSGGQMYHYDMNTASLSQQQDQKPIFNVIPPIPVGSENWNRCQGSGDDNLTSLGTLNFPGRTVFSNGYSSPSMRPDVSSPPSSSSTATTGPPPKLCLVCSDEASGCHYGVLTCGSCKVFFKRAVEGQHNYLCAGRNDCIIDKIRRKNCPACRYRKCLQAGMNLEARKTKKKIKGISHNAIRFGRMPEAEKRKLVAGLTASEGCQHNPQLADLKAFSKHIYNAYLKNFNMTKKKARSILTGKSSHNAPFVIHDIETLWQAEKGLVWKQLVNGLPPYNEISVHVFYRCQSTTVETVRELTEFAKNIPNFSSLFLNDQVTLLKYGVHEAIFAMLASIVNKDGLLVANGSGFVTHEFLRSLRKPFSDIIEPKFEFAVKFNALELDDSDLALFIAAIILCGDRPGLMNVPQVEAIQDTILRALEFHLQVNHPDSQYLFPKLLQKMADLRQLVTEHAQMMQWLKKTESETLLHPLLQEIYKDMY

[3] = system: histones H3 and H4 in F9 cells; experiment: Accumulation of hyperacetylated histones H3 and H4, Western blot; type: cell-based; settings: whole cell extracts, VPA in the range of therapeutic serum levels, 16 h
Source text: Histone deacetylase inhibitors induce the accumulation of N-terminally hyperacetylated histones H3 and H4. These acetylated histones can be detected by Western blot analysis of whole cell extracts or of histone preparations from histone deacetylase inhibitor-treated cells using antibodies specific for the acetylated N-terminal lysine residues of histones H3 and H4.
These acetylated histones can be detected by Western blot analysis in cell extracts of appropriately treated cells.
(A) For the time course analysis F9 cells were seeded into 6-well culture dishes 30 h before the intended time point of analysis. […] DNA of collected samples was sheared by sonication and samples were separated on a 15% denaturing polyacrylamide gel. Acetylated histones H3 and histone H4 were detected by Western blot analysis using commercially available antibodies (Upstate Biotechnology) specific for the acetylated forms of histones (Ac-H3, Cat-Nr.: 06-599; Ac-H4, Cat-Nr.: 06-598). Equal loading of the lanes was confirmed by staining a part of the polyacrylamide gel by Coomassie blue.
Whole cell extracts were prepared 16 h after treatment as described above. Analysis for acetylated histones H3 and H4 was performed as described in (A).

F9 teratocarcinoma cells [4] = experiment: Nuclear AP-2 protein as differentiation marker, Western blot; type: cell-based; settings: 48 h; VPA 1 mM, sodium butyrate 1 mM, trichostatin A 30 nM
Source text: Nuclear extracts were separated on a 9% SDS polyacrylamide gel. AP-2 protein was detected by Western blot analysis using a rabbit polyclonal antibody (Santa Cruz, Cat.-No.: SC-184) at a dilution of 1/1000 in Tris buffered saline containing 3% non-fat dry milk and 0.05% Tween 20.

F9 teratocarcinoma cells [5] = experiment: 3H-thymidine incorporation in F9 cells; type: cell-based; settings: 1 mM VPA, 36 h, then 12 h 3H-thymidine
Source text: (§1) Cell differentiation is associated with cell cycle arrest, morphological alterations and the appearance of expression of markers of the differentiated phenotype. Morphological alterations where determined by microscopic evaluation of F9 and HT-29 cells. One parameter of differentiation, the cell cycle arrest, was shown in F9 teratocacrcinoma, estrogen independent MT-450 breast cancer and HT-29 colonic carcinoma cells by means of the reduced incorporation of ^3H-thymidine into cultured cells. […] 37 kBq of ^3H-thymidine were added for additional 12 h of culture. MT-450 cells were cultured for 72 h prior to a 1 h ^3H-thymidine labelling period. Incorporation of ^3H-thymidine into DNA was determined by automatic cell harvesting and liquid scintillation counting. […] The dose-response for the reduction of thymidine incorporation into HT-29 cells (FIG. 5A) was determined by the same experimental procedure. In addition, the induction of a cell differentiation marker was shown in F9 teratocarcinoma cells (FIG. 5B).

[6] = system: SW-1116 colon cancer cells; experiment: Morphological evaluation for cell death, SW-1116; type: cell-based, human; settings: 1 mM VPA
Experimental: (§2) The reduction in biomass could indicate cell loss due to cell death and/or differentiation associated cell cycle arrest. Quantitative parameters, e.g. the loss of biomass, was determined in 30 human cancer cell lines (FIG. 8 e) and twelve examples of dose-response curves are shown, e.g. BT-549 breast cancer cells (1), estrogen dependent ZR-75 breast cancer cells (2), DMS-114 small cell lung cancer cells (3), NCl—H226 non-small cell lung cancer cells (4), SK-MEL-28 skin cancer cells (5), OVCAR-3 ovarian cancer cells (6), HUP-T3 pancreatic cancer cells (7), DU-145 prostate cancer cells (8), DETROIT-562 head and neck cancer cells, LS-174 colon cancer cells (10), A-172 brain cancer cells (11) and HL-60 leukemia cells (12) (FIGS. 8a-d). All cells were evaluated for morphological signs of cell death and/or differentiation.

[7] = system: breast, ovarian, squamous cell and renal carcinoma cells; experiment: Cell viability assay (MTT); type: cell-based; settings: 1 or 3 mM, 40 h or 70 h
Experimental: Human MDA-MB468, MDA-MB453 and SKBR3 breast carcinoma cells, A431 squamous cell carcinoma cells, and SKOV3 ovarian carcinoma cells were maintained in Dulbecco's modified Eagle's medium (DMEM, BioWhittaker, Verviers, Belgium) supplemented with 10% heat inactivated fetal bovine serum (FBS), 2 mM L-glutamine, 100 units/ml penicillin, and 100 μg/ml streptomycin. Human MCF7 breast carcinoma cells were grown in RPMI medium supplemented as described above.
Renal cell carcinoma (Renca) cells stably transfected with plasmid pZeoSV2/lacZ encoding E. coli β-galactosidase (Renca-lacZ cells) (Maurer-Gebhard et al., Cancer Res. 58: 2661-2666, 1998) were grown in RPMI-1640 medium supplemented with 8% FBS, 2 mM L-glutamine, 100 U/ml penicillin, 100 μg/ml streptomycin, 0.25 mg/ml Zeocin. […]
Tumor cells were seeded in 96 well plates at a density of 1×10^4 cells/well in normal growth medium. […] After solubilization of the formazan product, the absorption at 590 nm was determined in a microplate reader (Dynatech, Denkendorf, Germany) and the relative amount of viable cells in comparison to cells grown without the addition of valproic acid was calculated.

U87MG cells = experiment: Morphological evaluation for differentiation, U87MG; type: cell-based, human; settings: VPA treatment
Experimental: as §2

[8] = system: MT-450 breast cancer cells; experiment: 3H-thymidine incorporation in MT-450 cells; type: cell-based; settings: 1 mM VPA, 72 h, then 1 h 3H-thymidine
Source text: as §1

[9] = system: human cancer cell cultures; experiment: Reduction of total cellular biomass (Sulforhodamine B); type: cell-based; settings: 48 hours VPA
Experimental: Background OD of complete medium with 5% FBS fixed and stained as described above was also determined in 12 separate wells.

[10] = system: HT-29 colonic carcinoma cells; experiment: 3H-thymidine incorporation in HT-29 cells; type: cell-based; settings: 1 mM VPA, 36 h, then 12 h 3H-thymidine
Source text: as §1

PC-3 cells = experiment: Morphological evaluation for differentiation, PC-3; type: cell-based, human; settings: VPA treatment
Experimental: as §2

[11] = system: DU-145 prostate cancer cells; experiment: Morphological evaluation for differentiation, DU-145; type: cell-based, human; settings: VPA treatment
Experimental: as §2

In the case of `CC(/C=C/C(=O)NO)=C\[C@@H](C)C(=O)c1ccc(N(C)C)cc1` [TSA, trichostatin A], the “Relief of transcriptional repression (increase in reporter gene activity)” value [1] is reported as “relief of repression”, the “Activation of the reporter gene together with the PPARδ ligand cPGI” value [2] is reported as “synergistic activation” and the “Accumulation of hyperacetylated histones H3 and H4” value (“Accumulation” for short) [3] is reported as “induce the accumulation of hyperacetylated histones H3 and H4”. For the same compound, the “Appearance of nuclear AP-2 protein” value (F9 teratocarcinoma cells [4]) was “induce nuclear AP-2 protein”.

With `CCCC(CCC)C(=O)O` [VPA, 2-n-propylpentanoic acid] the “Reduction of the rate of thymidine incorporation” value (“Reduction” for short) (F9 teratocarcinoma cells [5]) was 48±5% and 48%, the “Cell death by morphological signs” value [6] was “most cells were dying” and the “Viability of tumor cells (MTT)” value [7] was “reduces the viability”. The “Change of cell morphology” value (U87MG cells) was “increase in length and develop spider-like filamentous extensions”, the “Reduction” value [8] was 63±8% and the Total cellular biomass [9] was “reduces the total cellular biomass”. For the same compound, the “Reduction” value [10] was 52±8%, the “Change of cell morphology” value (PC-3 cells) was “change their normal round morphology to a long fibroblast-like shape” and the “Accumulation” value [3] was “induce hyperactylation of histones H3 and H4”. For the same compound, the “Change of cell morphology” value [11] was “change their normal round morphology to a long fibroblast-like shape” and the “Appearance of nuclear AP-2 protein” value (F9 teratocarcinoma cells [4]) was “induce nuclear AP-2 protein”.

In the case of `CCCC(=O)[O-].[Na+]` [sodium butyrate], the “Accumulation” value [3] is reported as “induce the accumulation of hyperacetylated histones H3 and H4” and the “Appearance of nuclear AP-2 protein” value (F9 teratocarcinoma cells [4]) is reported as “weak”.

For `O=C1N[C@@H](Cc2ccccc2)C(=O)N2CCC[C@@H]2C(=O)N[C@@H](CCCCCC(=O)[C@@H]2CO2)C(=O)N[C@H]1Cc1ccccc1` [Trapoxin, trapoxin] (cyclo(FF[dP][Aoe])), the “Relief of transcriptional repression (increase in reporter gene activity)” value [1] was “relief of repression”.
